Measured values from paper PMC4850841 (Journal of medicinal chemistry, 2013).

Columns and labels:
[1] = tested on: GluN2C/D-containing NMDA receptors; assay: Potentiation of NMDA receptors, results stated jointly for both subtypes; format: cell-based, rat; conditions: for EC50: read-out: EC50, GluN2C/GluN2D stated jointly, maximally effective concentrations of glutamate and glycine
[2] = biological target: GluA1 (Rattus norvegicus, UniProt P19490); assay: Two electrode voltage clamp recordings, Xenopus laevis oocytes; format: cell-based; conditions: co-applied with 100 µM glutamate
Chain of GluA1 (P19490 19-907): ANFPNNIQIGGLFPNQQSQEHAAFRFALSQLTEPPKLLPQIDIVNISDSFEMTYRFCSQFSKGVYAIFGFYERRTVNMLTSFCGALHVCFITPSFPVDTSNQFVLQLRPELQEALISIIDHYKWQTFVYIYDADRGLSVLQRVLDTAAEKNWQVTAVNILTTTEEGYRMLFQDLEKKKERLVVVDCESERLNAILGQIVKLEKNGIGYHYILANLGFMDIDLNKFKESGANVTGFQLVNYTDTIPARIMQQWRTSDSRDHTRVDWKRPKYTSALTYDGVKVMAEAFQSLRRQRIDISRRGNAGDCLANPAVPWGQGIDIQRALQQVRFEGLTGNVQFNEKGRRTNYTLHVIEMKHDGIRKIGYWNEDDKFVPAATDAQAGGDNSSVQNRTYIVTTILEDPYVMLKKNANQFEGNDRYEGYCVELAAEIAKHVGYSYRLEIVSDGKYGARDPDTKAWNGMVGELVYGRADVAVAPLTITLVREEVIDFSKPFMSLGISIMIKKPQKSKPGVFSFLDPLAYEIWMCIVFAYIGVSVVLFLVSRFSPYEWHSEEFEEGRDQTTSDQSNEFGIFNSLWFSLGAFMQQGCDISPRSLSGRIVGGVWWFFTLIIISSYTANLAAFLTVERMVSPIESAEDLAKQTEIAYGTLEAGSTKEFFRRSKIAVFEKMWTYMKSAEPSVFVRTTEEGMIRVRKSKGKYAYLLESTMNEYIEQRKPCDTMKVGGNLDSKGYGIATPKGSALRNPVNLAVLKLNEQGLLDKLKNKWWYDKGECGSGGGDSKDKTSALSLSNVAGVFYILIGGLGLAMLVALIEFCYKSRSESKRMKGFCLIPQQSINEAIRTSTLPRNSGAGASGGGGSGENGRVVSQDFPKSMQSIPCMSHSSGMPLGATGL

Structure (SMILES)	effect on homomeric GluA1 responses [2]	activity on GluN2C- or GluN2D-containing receptors [1]	other results
COc1ccc(OCC2c3ccc(OCc4ccccc4)cc3CCN2C(=O)c2cccc(Cl)c2)cc1 (centres unmarked) [compound 82, (6-(benzyloxy)-1-((4-methoxyphenoxy)methyl)-3,4-dihydroisoquinolin-2(1H)-yl)(3-chlorophenyl)methanone]	–	–	EC50 [1]: 300 to 400 nM
COc1ccc(OCC2c3cc(OC)c(OC)cc3CCN2C(=O)c2cc(Cl)cc(Cl)c2)cc1 (centres unmarked) [compound 87, (3,5-dichlorophenyl)(6,7-dimethoxy-1-((4-methoxyphenoxy)methyl)-3,4-dihydroisoquinolin-2(1H)-yl)methanone]	no effects	–	–
COc1ccc(OCC2c3cc(OC)c(OC)cc3CCN2C(=O)c2cccc(CCl)c2)cc1 (centres unmarked) [compound 96, (3-(chloromethyl)phenyl)(6,7-dimethoxy-1-((4-methoxyphenoxy)methyl)-3,4-dihydroisoquinolin-2(1H)-yl)methanone]	no effects	–	–
COc1ccc(OCC2c3cc(OC)c(OC)cc3CCN2C(=O)c2cccc(C#N)c2)cc1 (centres unmarked) [compound 98, 3-(6,7-dimethoxy-1-((4-methoxyphenoxy)methyl)-1,2,3,4-tetrahydroisoquinoline-2-carbonyl)benzonitrile]	no effects	–	–
CCOc1ccc(OCC2c3cc(OC)c(OC)cc3CCN2C(=O)c2cccc(Cl)c2)cc1 (centres unmarked) [compound 100, (3-chlorophenyl)(1-((4-ethoxyphenoxy)methyl)-6,7-dimethoxy-3,4-dihydroisoquinolin-2(1H)-yl)methanone]	–	no detectable activity	–
CCOc1ccc(OCC2c3cc(OC)c(OC)cc3CCN2C(=O)c2cccc(Br)c2)cc1 (centres unmarked) [compound 101, (3-bromophenyl)(1-((4-ethoxyphenoxy)methyl)-6,7-dimethoxy-3,4-dihydroisoquinolin-2(1H)-yl)methanone]	–	no detectable activity	–
COc1ccc(OCC2c3cc4c(cc3CCN2C(=O)c2cccc(Cl)c2)OCO4)cc1 (centres unmarked) [compound 111, (3-chlorophenyl)(5-((4-methoxyphenoxy)methyl)-7,8-dihydro-[1,3]dioxolo[4,5-g]isoquinolin-6(5H)-yl)methanone]	no effects	–	–
COc1ccc(OCC2c3ccc(OC)cc3CCN2C(=O)c2cccc(Cl)c2)cc1 (centres unmarked) [compound 117, (3-chlorophenyl)(6-methoxy-1-((4-methoxyphenoxy)methyl)-3,4-dihydroisoquinolin-2(1H)-yl)methanone]	no effects	–	–
COc1ccc(OCC2c3ccc(OC)cc3CCN2C(=O)c2cccc(Br)c2)cc1 (centres unmarked) [compound 118, (3-bromophenyl)(6-methoxy-1-((4-methoxyphenoxy)methyl)-3,4-dihydroisoquinolin-2(1H)-yl)methanone]	no effects	–	–
COc1ccc(OCC2c3ccc(OC)c(OC)c3CCN2C(=O)c2cccc(Cl)c2)cc1 (centres unmarked) [compound 120, (3-chlorophenyl)(5,6-dimethoxy-1-((4-methoxyphenoxy)methyl)-3,4-dihydroisoquinolin-2(1H)-yl)methanone]	–	inactive	–
COc1ccc(OCC2c3ccc(OC)c(OC)c3CCN2C(=O)c2cccc(Br)c2)cc1 (centres unmarked) [compound 121, (3-bromophenyl)(5,6-dimethoxy-1-((4-methoxyphenoxy)methyl)-3,4-dihydroisoquinolin-2(1H)-yl)methanone]	–	inactive	–
COc1ccc(OCC2c3cc(C)c(C)cc3CCN2C(=O)c2cccc(Cl)c2)cc1 (centres unmarked) [compound 122, (3-chlorophenyl)(1-((4-methoxyphenoxy)methyl)-6,7-dimethyl-3,4-dihydroisoquinolin-2(1H)-yl)methanone]	–	–	EC50 [1]: ~1000 nM
COc1ccc(OCC2c3cc(C)c(C)cc3CCN2C(=O)c2cccc(Br)c2)cc1 (centres unmarked) [compound 123, (3-bromophenyl)(1-((4-methoxyphenoxy)methyl)-6,7-dimethyl-3,4-dihydroisoquinolin-2(1H)-yl)methanone]	–	–	EC50 [1]: ~1000 nM
COc1ccc(SCC2c3cc(OC)c(OC)cc3CCN2C(=O)c2ccccc2)cc1 (centres unmarked) [compound 127, (6,7-dimethoxy-1-(((4-methoxyphenyl)thio)methyl)-3,4-dihydroisoquinolin-2(1H)-yl)(phenyl)methanone]	–	eliminated activity	–
COc1cc2c(cc1OC)C(COc1ccc([N+](=O)[O-])cc1)N(C(=O)c1ccccc1)CC2 (centres unmarked) [compound 128, (6,7-dimethoxy-1-((4-nitrophenoxy)methyl)-3,4-dihydroisoquinolin-2(1H)-yl)(phenyl)methanone]	–	no detectable activity	–
COc1cc2c(cc1OC)C(COc1ccc([N+](=O)[O-])cc1)N(C(=O)c1cccc(Cl)c1)CC2 (centres unmarked) [compound 129, (3-chlorophenyl)(6,7-dimethoxy-1-((4-nitrophenoxy)methyl)-3,4-dihydroisoquinolin-2(1H)-yl)methanone]	–	no detectable activity	–
COc1cc2c(cc1OC)C(COc1ccc([N+](=O)[O-])cc1)N(C(=O)c1cccc(Br)c1)CC2 (centres unmarked) [compound 130, ((3-bromophenyl)(6,7-dimethoxy-1-((4-nitrophenoxy)methyl)-3,4-dihydroisoquinolin-2(1H)-yl)methanone)]	–	no detectable activity	–
COc1cc2c(cc1OC)C(COc1ccc(N)cc1)N(C(=O)c1ccccc1)CC2 (centres unmarked) [compound 131, ((1-((4-aminophenoxy)methyl)-6,7-dimethoxy-3,4-dihydroisoquinolin-2(1H)-yl)(phenyl)methanone)]	–	no detectable activity	–

Structure (SMILES)	effect on homomeric GluA1 responses [2]	activity on GluN2C- or GluN2D-containing receptors [1]	other results
COc1cc2c(cc1OC)C(COc1ccc(N)cc1)N(C(=O)c1cccc(Cl)c1)CC2 (centres unmarked) [compound 132, ((1-((4-aminophenoxy)methyl)-6,7-dimethoxy-3,4-dihydroisoquinolin-2(1H)-yl)(3-chlorophenyl)methanone)]	–	no detectable activity	–
COc1cc2c(cc1OC)C(COc1ccc(N)cc1)N(C(=O)c1cccc(Br)c1)CC2 (centres unmarked) [compound 133, ((1-((4-aminophenoxy)methyl)-6,7-dimethoxy-3,4-dihydroisoquinolin-2(1H)-yl)(3-bromophenyl)methanone)]	–	no detectable activity	–
COc1ccc(OCC2c3cc(OC)c(OC)cc3CCN2C(=O)c2ccc3ccccc3c2)cc1 (centres unmarked) [compound 138, (6,7-dimethoxy-1-((4-methoxyphenoxy)methyl)-3,4-dihydroisoquinolin-2(1H)-yl)(naphthalen-2-yl)methanone]	no effects	–	–
COc1ccc(OCC2c3cc(OC)c(OC)cc3CCN2C(=O)CN2CCOCC2)cc1 (centres unmarked) [compound 140, 1-(6,7-dimethoxy-1-((4-methoxyphenoxy)methyl)-3,4-dihydroisoquinolin-2(1H)-yl)-2-morpholinoethanone]	no effects	–	–
COc1ccc(OCC2c3cc(OC)c(OC)cc3CCN2Cc2ccccc2)cc1 (centres unmarked) [compound 141, 2-benzyl-6,7-dimethoxy-1-((4-methoxyphenoxy)methyl)-1,2,3,4-tetrahydroisoquinoline]	–	eliminated all activity	–
COc1ccc(/C=C/C2c3cc(OC)c(OC)cc3CCN2C(=O)c2ccccc2)cc1 (centres unmarked) [compound 155, (E)-(6,7-dimethoxy-1-(4-methoxystyryl)-3,4-dihydroisoquinolin-2(1H)-yl)(phenyl)methanone]	no effects	–	–
COc1ccc(/C=C/C2c3cc(OC)c(OC)cc3CCN2C(=O)c2cccc(Br)c2)cc1 (centres unmarked) [compound 157, (E)-(3-bromophenyl)(6,7-dimethoxy-1-(4-methoxystyryl)-3,4-dihydroisoquinolin-2(1H)-yl)methanone]	no effects	–	–
COc1ccc(/C=C/C2c3ccc(OC)cc3CCN2C(=O)c2cccc(Cl)c2)cc1 (centres unmarked) [compound 158, (E)-(3-chlorophenyl)(6-methoxy-1-(4-methoxystyryl)-3,4-dihydroisoquinolin-2(1H)-yl)methanone]	no effects	–	–
COc1ccc(/C=C/C2c3ccc(OC)cc3CCN2C(=O)c2cccc(Br)c2)cc1 (centres unmarked) [compound 159, (E)-(3-bromophenyl)(6-methoxy-1-(4-methoxystyryl)-3,4-dihydroisoquinolin-2(1H)-yl)methanone]	no effects	–	–
COc1ccc(CCC2c3cc(OC)c(OC)cc3CCN2C(=O)c2cccc(Cl)c2)cc1 (centres unmarked) [compound 161, (3-chlorophenyl)(6,7-dimethoxy-1-(4-methoxyphenethyl)-3,4-dihydroisoquinolin-2(1H)-yl)methanone]	no effects	–	–
COc1ccc(OCC2c3cc(OC)c(OC)cc3CCN2C(=S)Nc2ccccc2)cc1 (centres unmarked) [compound 211]	–	loss of activity	–
COc1ccc(OCC2c3cc(OC)c(OC)cc3CCN2C(=S)Nc2cccc(Cl)c2)cc1 (centres unmarked) [compound 212]	–	loss of activity	–
COc1ccc(OCC2c3cc(OC)c(OC)cc3CCN2C(=S)Nc2cccc(F)c2)cc1 (centres unmarked) [compound 213]	–	loss of activity	–
COc1ccc(OCC2c3cc(OC)c(OC)cc3CCN2C(=S)Nc2cccc(Br)c2)cc1 (centres unmarked) [compound 214]	–	loss of activity	–
COc1ccc(OCC2c3cc(OC)c(OC)cc3CCN2C(=S)Nc2cccc(C)c2)cc1 (centres unmarked) [compound 215]	–	weak potentiating activity	–
COc1ccc(OCC2c3cc(OC)c(OC)cc3CCN2S(=O)(=O)c2ccccc2)cc1 (centres unmarked) [compound 216]	–	eliminated all activity	–
COc1ccc(OCC2c3cc(OC)c(OC)cc3CCN2S(=O)(=O)c2cccc(Cl)c2)cc1 (centres unmarked) [compound 217]	–	eliminated all activity	–
